Measured values published in a melting point compilation (Tetko et al.; mined from patent text by program, amines drawn as free bases though some values may be those of a salt).

SMILES | melting point [°C]
Cn1c(C(F)(F)F)cc(=O)n(-c2cc(OC3CC=CNC3=O)c(Cl)cc2F)c1=O (configuration not stated) | 91
Cc1ccc(S(=O)(=O)OCCC2Cc3ccccc3O2)cc1 (configuration not stated) | 51 to 54
CCOC(=O)c1cc2c(C)ccc3c2n1CCO3 | 101 to 102
O=C(O)CCNC(=O)C(=Cc1ccc(Oc2ccccc2)cc1)CS | 108
COCCOCCn1cc(C(=O)NCc2ccc(Cl)cc2)c(=O)c2cc(CO)ccc21 | 161 to 162
NCCCNC(c1ccccc1)(c1ccccc1)c1ccccc1 | 59 to 61
CN(C)c1ccc(/C=C/c2c(F)ccc(F)c2F)cc1 | 91 to 92
Fc1ccc(Oc2cc3c(Cl)nc(Cl)nc3cn2)c(F)c1 | 144 to 146
CCOC(=O)C1=NN(C(=O)c2ccccc2I)C(C(=O)OCC)=NN1C(=O)c1ccccc1I | 186 to 187
O=C(c1ccccc1)c1cc([N+](=O)[O-])ccc1-n1nc(CCl)cc1CCl | 152 to 155
CC(=O)Nc1ccc2c(c1)CC(N(C)C)C2 (configuration not stated) | 94 to 96
CCOC(=O)CC1CN=C(c2cc3cccc(N(C)S(=O)(=O)c4cccnc4)c3[nH]2)S1 (configuration not stated) | 146 to 147
COC(=O)C1(Cl)CC1C(=O)O (configuration not stated) | 77.7 to 79.1
Cc1ccc(S(=O)(=O)N=NCNC[C@@H]2C[C@H](C(=O)O)N(C(=O)OC(C)(C)C)C2)cc1 | 132 to 133
CN1CCN(c2ccc(OCc3cc(CCC(=O)O)c4c(c3)CC(NS(=O)(=O)c3ccc(Cl)cc3)CC4)cc2)CC1 (configuration not stated) | 148
COc1ccc2cc(-c3ccc(OCCN4CCCC4)cc3)sc2c1 | 151 to 154
O=C(O)c1cc(-c2ccc(C(F)(F)F)cc2)c2c3c(ccc2c1)OCO3 | 207 to 209
CCC(Cc1cccc(F)c1)n1nnc2cc3c(cc2c1=O)OC1CCCN1C3=O (configuration not stated) | 117 to 119
CCCCS(=O)(=O)OCCN(CCBr)c1c(C(=O)NCCOP(=O)(O)O)cc([N+](=O)[O-])cc1[N+](=O)[O-] | 123 to 125
O=C(NC1CCOCC1)c1cccc(-c2cccc3oc(Cc4cccc(C(F)(F)F)c4)cc23)c1 | 107 to 108
O=C(O)Cc1c(F)c(F)nc(F)c1Cl | 127 to 129
COc1ccc(C(N)=Nc2ccc(C(=O)O)cc2)cc1C12CC3CC(CC(C3)C1)C2 | 263 to 265
COc1cccc(OC)c1-c1cc(C(=O)N[C@H](C(=O)O)C2CCCCC2)nn1-c1ccc(C(N)=O)c2ccccc12 | 186
COc1cc2c(cc1C#Cc1ccc(C)cc1)C(C)(C)CCC2(C)C | 127
CCCC(Cc1ccc(OCc2ccccc2)cc1)C(=O)O (configuration not stated) | 83 to 85
Cc1c(Cl)cccc1S(=O)(=O)Nc1nc(CC(=O)N(C)C)cs1 | 84
Cc1nn(-c2ccccn2)c2[nH]c3ccc(N(C)C)cc3c(=O)c12 | 171 to 173
O=c1oc2ccccc2c(O)c1CCC(O)c1ccccc1 (configuration not stated) | 138 to 140
O=c1cc(C(F)(F)F)[nH]c(=O)n1-c1cc(O)c(Cl)cc1F | 68 to 72

Results, then the compound that gave them:

melting point [°C] | SMILES
144 to 146 | CCCCc1c(C(=O)OCC)cc(Oc2nnnn2-c2ccccc2)c2c(OC)cccc12
70.5 | CCCCCCCCCCCCOC(C)c1ccc(-c2ccc(C(=O)O)cc2)cc1 (single isomer, unassigned; (+))
179 to 181 | O=Cc1cc(C#Cc2ccccc2)c(C=O)cc1C#Cc1ccccc1
160 to 162 | CNc1nc(C)c(C)cc1NC(=O)N1CCN(c2cc(C)cc(C)c2)CC1
185 to 188 | NC(=O)c1cccc(CCN2CC=C(c3c[nH]c(-c4ccc(F)cc4)c3-c3ccncc3)CC2)c1
107 to 109 | NCCC1(O)CCc2ccccc2C12CCCC2 (configuration not stated)
74 to 74.5 | COCCOc1ccc([N+](=O)[O-])cc1S(=O)(=O)Cl
127 to 132 | CCc1ccc(C2C(=O)Oc3c2cc(C(C)(C)C)cc3C(C)(C)C)cc1 (configuration not stated)
291 to 293 | Cc1nc2c3c(c(C(=O)N4CCOCC4)cc2n1C)CCC(c1ccccc1)O3 (configuration not stated)
141 to 142 | COc1ccc2c(C)c(CCO)c(=O)oc2c1
196 to 197 | O=C1NCCc2c(-c3ccc(F)cc3F)[nH]c3cccc1c23
220 to 221 | Nc1nnc(-c2ccc3occ(-c4ccccc4Cl)c3c2)o1
252 to 253 | Cc1c(Br)c(=O)c(C(=O)O)c(-c2ccccc2)n1C
242 to 245 | CCCCc1nc(N)cc(=O)[nH]1
70 to 72 | CC(F)(F)CCc1ccccc1S(N)(=O)=O
124 to 125 | CCOC(=O)C1Cc2cc3c(-c4ccccc4F)noc3c(C)c2O1 (configuration not stated)
73 to 74.5 | O=C1CC(CF)(CF)Oc2ccc(C(F)(F)F)cc21
175 to 177 | Oc1ccc(-c2nc3cc(O)cc(C(Br)CBr)c3o2)cc1 (configuration not stated)
186 to 188 | CC(C)c1cccc(C(C)C)c1NC(=O)NC1COc2ccccc2C1 (configuration not stated)
135 to 139 | Cc1cc(-n2nc(C(F)(F)F)cc2-c2ccc(-c3ccco3)cc2)ccc1S(C)(=O)=O
123 to 124 | CC(C)Cc1ccc(-c2ncccc2S(=O)(=O)Oc2ccc([N+](=O)[O-])cc2)cc1
85 | CC(O)c1ccc(C(C)(C)C)cc1 (single isomer, unassigned; (+))

melting point [°C] | SMILES
69.6 to 70.1 | CN(Cc1ccc(COC(=O)NC(Cc2ccccc2)C(=O)O)cc1)c1ccccc1 (configuration not stated)
134 to 142 | CCCCCNc1nc(N(C)Cc2ccccc2)c2ncn(CC(=O)O)c2n1
241 to 243 | CCc1c(-c2ccncc2)[nH]c(-c2ccncc2)c1C(C)=O
216 to 217 | Cc1cc(C)n2nc(OC(=S)N(C)C)cc2n1
137 | CCOC(=O)c1c(Cl)nc(-c2ccc(N)cc2)c(N)c1C(=O)OCC
215 to 216 | COc1ccc(-c2nc(CN(c3ccccc3)c3ccccc3)nc3cc(OC)c(OC)cc23)cc1OC
114 to 116 | Cc1cc(C(C)(C)C)c(O)c(S(N)(=O)=O)c1
158 to 159 | CNC(=O)N(O)CCNC(=O)c1ccc2ccccc2n1
223 to 227 | Cc1c(C)c(N2CCN(c3ccc(S(C)=O)cc3)CC2)c(C)c2c1OC(C)(C)C2 (configuration not stated)
110 to 111 | CCCCc1cc(O)cc(=O)o1
159 to 161 | CC1=NC(C)(C)SC1=NO
> 200 | Cc1nc(N2CCN(CC3CC3)C2=O)sc1C(=O)NCc1ccncc1
263 to 264 | O=C(O)CCC(=O)Nc1ccc(N2CCN(c3ccncc3)CC2)cc1
177 to 179 | COc1ccc(C(=O)c2ccc(-c3nc4ccccc4o3)cc2)c(O)c1
137 to 139 | CC[C@H]1COC(=O)N1c1nc(-c2ccc(Br)cc2)c(Cl)s1
> 240 | Cn1cc(C(N)=O)c(=O)c2ccc(Cl)cc21
114 to 115 | Nc1ccc(C(=O)N2CCOCC2)c(N)c1
194 | NS(=O)(=O)c1ccc(-n2ncc(F)c2-c2ccccc2)cc1
195 to 196 | COc1ccnc(C(=O)c2[nH]c3cc(Cl)ccc3c2N)c1
68 to 69 | CCOC(=O)CCCC(=O)c1ccc(O)c(CCC(=O)OCC)c1
84.5 to 86 | N#CCc1c(C(F)(F)F)cccc1C(F)(F)F
